{"source": "patent US20250163053A1", "about": "“CRYSTALLINE FORM OF NITROGEN-CONTAINING HETEROCYCLIC COMPOUND, PREPARATION METHOD THEREFOR AND USE THEREOF” (SHANGHAI PHARMACEUTICALS HOLDING CO., LTD., priority 2022, published 2025)", "key": {"[1]": {"assay": "Absorption in rats after intragastric administration of different crystal forms (plasma PK, LC/MS/MS)", "format": "in vivo", "settings": "8 mg/kg", "procedure": "SD rats were intragastrically administered samples of different crystal forms. Blood samples (0.4 mL) were respectively collected from the venous plexus of the rat's fundus oculi at various time points: before administration and at 5, 15, 30, 60, 90, 120, 240, 360, 480, 600, and 1440 minutes after administration. The blood samples were centrifuged at 8000 rpm for 5 minutes to separate the upper plasma. 50 μL of plasma sample was added with 300 μL of acetonitrile containing an internal standard (Propranolol, 25 ng/mL) to precipitate proteins. The mixture was vortexed for 10 minutes, and centrifuged at 6000 g and 4° C. for 20 minutes. The supernatant (20 μL) was taken and diluted with 80 μL of ultrapure water. After centrifugation, 80 μL of the supernatant was taken for injection into a 96-well plate. The plasma drug concentration was determined using LC/MS/MS, and the corresponding pharmacokinetic parameters were calculated, as shown in Table 17."}, "[2]": {"assay": "Physicochemical stability of crystal form C (UPLC purity, XRPD)", "procedure": "The solid samples after being placed under different conditions were respectively tested for purity by UPLC to evaluate chemical stability, and the crystal form was tested by XRPD to evaluate physical stability. […] Additionally, no significant degradation was observed after one day at 60° C. or one week at 25° C./60% RH and 40° C./75% RH (details of purity changes are provided in Table 16)."}, "[3]": {"biological_target": "T1, ErbB2 kinase (HER2) (Homo sapiens, UniProt P04626)", "T1 construct": "purchased Sigma E2645-500UN", "T1 sequence (P04626 23-1255)": "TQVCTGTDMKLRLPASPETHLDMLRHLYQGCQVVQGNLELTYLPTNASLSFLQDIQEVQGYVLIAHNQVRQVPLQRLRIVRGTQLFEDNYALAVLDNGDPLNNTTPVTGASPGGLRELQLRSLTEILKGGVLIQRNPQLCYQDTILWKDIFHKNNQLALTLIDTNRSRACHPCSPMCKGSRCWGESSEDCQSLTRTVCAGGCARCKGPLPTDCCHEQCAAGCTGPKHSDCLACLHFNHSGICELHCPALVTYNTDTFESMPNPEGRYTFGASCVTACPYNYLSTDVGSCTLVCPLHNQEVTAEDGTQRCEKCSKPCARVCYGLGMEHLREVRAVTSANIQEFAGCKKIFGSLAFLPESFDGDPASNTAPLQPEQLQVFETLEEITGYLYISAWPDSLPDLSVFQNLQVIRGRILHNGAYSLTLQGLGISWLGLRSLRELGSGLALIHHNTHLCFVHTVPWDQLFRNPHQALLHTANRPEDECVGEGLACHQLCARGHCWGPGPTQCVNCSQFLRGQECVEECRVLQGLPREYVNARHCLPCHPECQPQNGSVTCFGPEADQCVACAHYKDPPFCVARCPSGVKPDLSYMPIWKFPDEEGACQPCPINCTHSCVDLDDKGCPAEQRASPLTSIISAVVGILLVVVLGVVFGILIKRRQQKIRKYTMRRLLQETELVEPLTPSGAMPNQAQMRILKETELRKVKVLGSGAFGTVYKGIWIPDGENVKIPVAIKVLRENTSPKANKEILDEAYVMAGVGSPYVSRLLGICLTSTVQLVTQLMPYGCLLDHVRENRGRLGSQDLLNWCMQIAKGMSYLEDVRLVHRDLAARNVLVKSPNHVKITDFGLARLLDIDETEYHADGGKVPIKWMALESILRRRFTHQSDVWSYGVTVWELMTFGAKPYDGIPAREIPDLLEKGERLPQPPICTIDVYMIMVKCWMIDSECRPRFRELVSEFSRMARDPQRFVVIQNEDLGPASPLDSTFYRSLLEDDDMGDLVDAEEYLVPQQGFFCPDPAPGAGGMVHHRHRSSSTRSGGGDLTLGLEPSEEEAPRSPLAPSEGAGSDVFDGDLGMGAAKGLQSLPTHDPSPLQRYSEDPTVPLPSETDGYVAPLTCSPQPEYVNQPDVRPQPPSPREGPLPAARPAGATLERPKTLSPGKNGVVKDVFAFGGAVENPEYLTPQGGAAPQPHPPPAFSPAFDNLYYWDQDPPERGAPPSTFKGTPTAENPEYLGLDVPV", "assay": "EGFR/ErbB2 enzymatic assay (HTRF kinEASE-TK), ErbB2", "format": "biochemical", "settings": "ErbB2 kinase 0.06 ng/μL, ATP 4 μM", "procedure": "(§1) First, a 1× reaction buffer required for the kinase was prepared by diluting the 5× Enzymatic Buffer (HEPES 20 mM, pH 7.0, NaN3 0.1%, BSA 0.05%, sodium orthovanadate 0.5 mM) from the HTRF kinEASE-TK kit with deionized water to one-fold. At the same time, 50 nM Supplement Enzymatic Buffer (SEB reagent), 1 mM MnCl2, 5 mM MgCl2, and 1 mM DTT were added. Next, a 5× compound solution was prepared. […] This initial concentration was then used as the first concentration, and further diluted with DMSO in a 3-fold serial dilution to dilute a total of 10 concentrations. Subsequently, 1 μL of the serially diluted solution was added to 19 μL of 1× reaction buffer to prepare the 5× compound solution for later use. Then, 2 μL of the 5× compound solution was transferred from the 96-well plate into a 384-well plate. In the no-compound control wells, 2 μL of a mixture of 1 μL DMSO and 19 μL 1× reaction buffer was added. In the blank control wells, 2 μL of 250 mM EDTA was added. In the third step, the enzyme reaction stage, the kinase, substrate (TK Substrate-biotin), and ATP were prepared into a 2.5× enzyme/substrate mixture and a 2.5× ATP solution using the 1× reaction buffer. […] Data were measured on EnVision™, with a 337 nm laser used as the excitation light. The RFU was measured at 665 nm and 620 nm, and RFU 665 nM/RFU 620 nM×10000 was used as the final data for analysis."}, "[4]": {"biological_target": "T2, EGFR kinase (Homo sapiens, UniProt P00533)", "T2 construct": "purchased Carna 08-016", "T2 sequence (P00533 25-1210)": "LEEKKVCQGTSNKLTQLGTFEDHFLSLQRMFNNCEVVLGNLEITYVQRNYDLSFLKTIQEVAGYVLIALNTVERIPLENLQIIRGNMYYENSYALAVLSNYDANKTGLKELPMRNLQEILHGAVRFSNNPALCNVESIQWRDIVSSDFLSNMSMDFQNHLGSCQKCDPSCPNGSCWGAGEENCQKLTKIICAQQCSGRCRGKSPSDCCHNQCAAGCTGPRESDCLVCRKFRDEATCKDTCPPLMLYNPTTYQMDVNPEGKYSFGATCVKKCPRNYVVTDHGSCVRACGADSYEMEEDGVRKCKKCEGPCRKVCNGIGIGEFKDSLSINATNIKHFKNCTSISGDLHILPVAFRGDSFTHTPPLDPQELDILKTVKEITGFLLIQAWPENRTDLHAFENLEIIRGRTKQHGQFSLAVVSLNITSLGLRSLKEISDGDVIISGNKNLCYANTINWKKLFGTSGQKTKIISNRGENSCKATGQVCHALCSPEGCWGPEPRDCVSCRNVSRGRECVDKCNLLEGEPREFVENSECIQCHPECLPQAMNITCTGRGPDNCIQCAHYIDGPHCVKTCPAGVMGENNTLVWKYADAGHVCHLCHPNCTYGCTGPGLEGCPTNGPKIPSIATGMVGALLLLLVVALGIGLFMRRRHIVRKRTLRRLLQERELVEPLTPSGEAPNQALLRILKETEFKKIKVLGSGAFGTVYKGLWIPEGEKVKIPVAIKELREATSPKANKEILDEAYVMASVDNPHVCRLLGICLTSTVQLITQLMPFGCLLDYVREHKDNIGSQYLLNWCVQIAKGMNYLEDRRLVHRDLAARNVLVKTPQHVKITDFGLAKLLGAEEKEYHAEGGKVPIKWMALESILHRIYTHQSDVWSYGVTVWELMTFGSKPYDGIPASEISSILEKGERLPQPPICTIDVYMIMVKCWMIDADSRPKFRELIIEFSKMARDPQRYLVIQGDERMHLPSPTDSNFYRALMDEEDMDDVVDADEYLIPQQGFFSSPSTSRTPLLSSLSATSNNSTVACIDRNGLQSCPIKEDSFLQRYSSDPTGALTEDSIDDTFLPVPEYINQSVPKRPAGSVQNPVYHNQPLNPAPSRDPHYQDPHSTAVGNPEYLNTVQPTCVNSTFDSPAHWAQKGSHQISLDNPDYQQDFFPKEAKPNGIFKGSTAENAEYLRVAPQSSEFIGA", "assay": "EGFR/ErbB2 enzymatic assay (HTRF kinEASE-TK), EGFR", "format": "biochemical", "settings": "EGFR kinase 0.06 units/μL, ATP 1.65 μM", "procedure": "as §1"}}, "note": "Like-named read-outs stand apart in the source and are kept apart here."}
{"smiles": "CCOc1cc2ncnc(Nc3ccc(Oc4ccn5ncnc5c4)c(C)c3)c2cc1NC(=O)/C(F)=C/[C@H]1CCCN1C", "note": "[Amorphous form, (R,Z)-N-(4-((4-([1,2,4]triazolo[1,5-α]pyridin-7-yloxy)-3-methylphenyl)amino)-7-ethoxyquinazolin-6-yl)-2-fluoro-3-(1-methylpyrrolidin-2-yl)acrylamide]", "values": [{"measurement": "AUCextra", "setting": "[1]; SD rats", "result": "0.758 (h)*(ng/mL)"}, {"measurement": "AUClast", "setting": "[1]; SD rats", "result": "6536 (h)*(ng/mL)"}, {"measurement": "AUCtot", "setting": "[1]; SD rats", "result": "6586 (h)*(ng/mL)"}, {"measurement": "Cmax", "setting": "[1]; SD rats", "result": 800, "unit": "ng/mL"}, {"measurement": "Tmax", "setting": "[1]; SD rats", "result": 6.00, "unit": "h"}, {"measurement": "half-life", "setting": "[1]; SD, rat, plasma, po", "result": 3.03, "unit": "h"}, {"measurement": "MRT", "setting": "[1]; SD, rat, plasma, po, read-out: MRT", "result": 6.52, "unit": "h"}]}
{"smiles": "CCOc1cc2ncnc(Nc3ccc(Oc4ccn5ncnc5c4)c(C)c3)c2cc1NC(=O)/C(F)=C/[C@H]1CCCN1C", "note": "[Crystal form A, (R,Z)-N-(4-((4-([1,2,4]triazolo[1,5-α]pyridin-7-yloxy)-3-methylphenyl)amino)-7-ethoxyquinazolin-6-yl)-2-fluoro-3-(1-methylpyrrolidin-2-yl)acrylamide]", "values": [{"measurement": "AUCextra", "setting": "[1]; SD rats", "result": "0.288 (h)*(ng/mL)"}, {"measurement": "AUClast", "setting": "[1]; SD rats", "result": "4789 (h)*(ng/mL)"}, {"measurement": "AUCtot", "setting": "[1]; SD rats", "result": "4802 (h)*(ng/mL)"}, {"measurement": "Cmax", "setting": "[1]; SD rats", "result": 753, "unit": "ng/mL"}, {"measurement": "MRT", "setting": "[1]; SD rats", "result": 4.74, "unit": "h"}, {"measurement": "Tmax", "setting": "[1]; SD rats", "result": 2.00, "unit": "h"}, {"measurement": "t1/2", "setting": "[1]; SD rats", "result": 2.74, "unit": "h"}]}
{"smiles": "CCOc1cc2ncnc(Nc3ccc(Oc4ccn5ncnc5c4)c(C)c3)c2cc1NC(=O)/C(F)=C/[C@H]1CCCN1C", "note": "[Crystal form B, (R,Z)-N-(4-((4-([1,2,4]triazolo[1,5-α]pyridin-7-yloxy)-3-methylphenyl)amino)-7-ethoxyquinazolin-6-yl)-2-fluoro-3-(1-methylpyrrolidin-2-yl)acrylamide]", "values": [{"measurement": "AUCextra", "setting": "[1]; SD rats", "result": "1.01 (h)*(ng/mL)"}, {"measurement": "AUClast", "setting": "[1]; SD rats", "result": "5904 (h)*(ng/mL)"}, {"measurement": "AUCtot", "setting": "[1]; SD rats", "result": "5965 (h)*(ng/mL)"}, {"measurement": "Cmax", "setting": "[1]; SD rats", "result": 599, "unit": "ng/mL"}, {"measurement": "MRT", "setting": "[1]; SD rats", "result": 6.07, "unit": "h"}, {"measurement": "Tmax", "setting": "[1]; SD rats", "result": 6.00, "unit": "h"}, {"measurement": "t1/2", "setting": "[1]; SD rats", "result": 3.34, "unit": "h"}]}
{"smiles": "CCOc1cc2ncnc(Nc3ccc(Oc4ccn5ncnc5c4)c(C)c3)c2cc1NC(=O)/C(F)=C/[C@H]1CCCN1C", "note": "[Crystal form C, (R,Z)-N-(4-((4-([1,2,4]triazolo[1,5-α]pyridin-7-yloxy)-3-methylphenyl)amino)-7-ethoxyquinazolin-6-yl)-2-fluoro-3-(1-methylpyrrolidin-2-yl)acrylamide]", "values": [{"measurement": "Stability sample purity", "setting": "[2]; 25° C./60% RH, 1 week, open", "result": 99.29, "unit": "area %"}, {"measurement": "Peak at RRT 0.63", "setting": "[2]; 25° C./60% RH, one week", "result": 0.18, "unit": "%"}, {"measurement": "Peak at RRT 0.67", "setting": "[2]; 25° C./60% RH, one week", "result": 0.18, "unit": "%"}, {"measurement": "Peak at RRT 0.95", "setting": "[2]; 25° C./60% RH, one week", "result": 0.08, "unit": "%"}, {"measurement": "Peak at RRT 1.00", "setting": "[2]; 25° C./60% RH, one week", "result": 99.29, "unit": "%"}, {"measurement": "Peak at RRT 1.03", "setting": "[2]; 25° C./60% RH, one week", "result": 0.12, "unit": "%"}, {"measurement": "Peak at RRT 1.08", "setting": "[2]; 25° C./60% RH, one week", "result": 0.15, "unit": "%"}, {"measurement": "Stability sample purity", "setting": "[2]; 40° C./75% RH, 1 week, open", "result": 99.29, "unit": "area %"}, {"measurement": "Peak at RRT 0.63", "setting": "[2]; 40° C./75% RH, one week", "result": 0.18, "unit": "%"}, {"measurement": "Peak at RRT 0.67", "setting": "[2]; 40° C./75% RH, one week", "result": 0.18, "unit": "%"}, {"measurement": "Peak at RRT 0.95", "setting": "[2]; 40° C./75% RH, one week", "result": 0.08, "unit": "%"}, {"measurement": "Peak at RRT 1.00", "setting": "[2]; 40° C./75% RH, one week", "result": 99.29, "unit": "%"}, {"measurement": "Peak at RRT 1.03", "setting": "[2]; 40° C./75% RH, one week", "result": 0.12, "unit": "%"}, {"measurement": "Peak at RRT 1.08", "setting": "[2]; 40° C./75% RH, one week", "result": 0.15, "unit": "%"}, {"measurement": "Stability sample purity", "setting": "[2]; 60° C., 24 hours, sealed", "result": 99.29, "unit": "area %"}, {"measurement": "Peak at RRT 0.63", "setting": "[2]; 60° C., one day", "result": 0.18, "unit": "%"}, {"measurement": "Peak at RRT 0.67", "setting": "[2]; 60° C., one day", "result": 0.18, "unit": "%"}, {"measurement": "Peak at RRT 0.95", "setting": "[2]; 60° C., one day", "result": 0.08, "unit": "%"}, {"measurement": "Peak at RRT 1.00", "setting": "[2]; 60° C., one day", "result": 99.29, "unit": "%"}, {"measurement": "Peak at RRT 1.03", "setting": "[2]; 60° C., one day", "result": 0.12, "unit": "%"}, {"measurement": "Peak at RRT 1.08", "setting": "[2]; 60° C., one day", "result": 0.15, "unit": "%"}, {"measurement": "Peak at RRT 0.63", "setting": "[2]; Initial sample", "result": 0.18, "unit": "%"}, {"measurement": "Peak at RRT 0.67", "setting": "[2]; Initial sample", "result": 0.18, "unit": "%"}, {"measurement": "Peak at RRT 0.95", "setting": "[2]; Initial sample", "result": 0.08, "unit": "%"}, {"measurement": "Peak at RRT 1.00", "setting": "[2]; Initial sample", "result": 99.31, "unit": "%"}, {"measurement": "Peak at RRT 1.03", "setting": "[2]; Initial sample", "result": 0.10, "unit": "%"}, {"measurement": "Peak at RRT 1.08", "setting": "[2]; Initial sample", "result": 0.15, "unit": "%"}, {"measurement": "Crystal form change", "setting": "[2]; XRPD, 60° C. 24 hours, 25° C./60% RH 1 week, 40° C./75% RH 1 week", "result": "No"}, {"measurement": "Initial purity", "setting": "[2]; before storage, UPLC", "result": 99.31, "unit": "area %"}, {"measurement": "IC50", "setting": "[3]", "result": 0.26, "unit": "nM"}, {"measurement": "AUCextra", "setting": "[1]; SD rats", "result": "0.451 (h)*(ng/mL)"}, {"measurement": "AUClast", "setting": "[1]; SD rats", "result": "6863 (h)*(ng/mL)"}, {"measurement": "AUCtot", "setting": "[1]; SD rats", "result": "6894 (h)*(ng/mL)"}, {"measurement": "Cmax", "setting": "[1]; SD rats", "result": 1165, "unit": "ng/mL"}, {"measurement": "MRT", "setting": "[1]; SD rats", "result": 4.63, "unit": "h"}, {"measurement": "Tmax", "setting": "[1]; SD rats", "result": 2.00, "unit": "h"}, {"measurement": "t1/2", "setting": "[1]; SD rats", "result": 3.04, "unit": "h"}, {"measurement": "IC50", "setting": "[4]", "result": 1.45, "unit": "nM"}]}
{"smiles": "CCOc1cc2ncnc(Nc3ccc(Oc4ccn5ncnc5c4)c(C)c3)c2cc1NC(=O)/C(F)=C/[C@H]1CCCN1C", "note": "[Crystal form M, (R,Z)-N-(4-((4-([1,2,4]triazolo[1,5-α]pyridin-7-yloxy)-3-methylphenyl)amino)-7-ethoxyquinazolin-6-yl)-2-fluoro-3-(1-methylpyrrolidin-2-yl)acrylamide]", "values": [{"measurement": "AUCextra", "setting": "[1]; SD rats", "result": "0.169 (h)*(ng/mL)"}, {"measurement": "AUClast", "setting": "[1]; SD rats", "result": "2870 (h)*(ng/mL)"}, {"measurement": "AUCtot", "setting": "[1]; SD rats", "result": "2875 (h)*(ng/mL)"}, {"measurement": "Cmax", "setting": "[1]; SD rats", "result": 489, "unit": "ng/mL"}, {"measurement": "MRT", "setting": "[1]; SD rats", "result": 4.59, "unit": "h"}, {"measurement": "Tmax", "setting": "[1]; SD rats", "result": 2.00, "unit": "h"}, {"measurement": "t1/2", "setting": "[1]; SD rats", "result": 2.55, "unit": "h"}]}
